Assay results reported in article PMC8746798, “Evaluation of 2-Thioxoimadazolidin-4-one Derivatives as Potent Anti-Cancer Agents through Apoptosis Induction and Antioxidant Activation: In Vitro and In Vivo Approaches” (Molecules, 2021).

Assays:
HepG2 cells = experiment: DNA content flow cytometry cell cycle analysis; assay type: cell-based, human; conditions: HepG2, IC50 = 0.017 μM, 48 h; control 12.26%
Source text: Apoptotic cells were quantified using double staining with annexin V and PI on flow cytometry. […] The detailed methodology of flow cytometric analysis (annexin V/PI differential apoptosis/necrosis, DNA content–flow cytometry aided cell cycle) is provided in the Supplementary Materials.
Supplementary materials for detailed methodology
Evaluation of 2-thioxoimadazolidin-4-one Derivatives as Potent
Anti-cancer Agents Through Apoptosis Induction and Antioxi-dant Activation: In vitro and In vivo Approaches
Mohamed S. Nafie 1,*, Ahmed I. Khodair 2,*, Hebat Allah Y. Hassan 3, Noha M. Abd El-Fadeal 4, Hanin A. Bogari 5 , Sameh S. Elhady 6 and Safwat A. Ahmed 3,7,* […]
Apoptosis and necrosis cell populations are determined using Annexin V-FITC apop-tosis detection kit (Abcam Inc., Cambridge Science Park, Cambridge, UK) coupled with 2 fluorescent channels flowcytometry. […]
Then, cells are incubated in dark with 0.5 ml of Annexin V-FITC/PI solution for 30 min in dark at room temperature according to manufacturer protocol. After staining, cells are injected via ACEA Novocyte™ flowcytometer (ACEA Biosciences Inc., San Diego, CA, USA) and analyzed for FITC and PI fluorescent signals using FL1 and FL2 signal detector, respectively (λex/em 488/530 nm for FITC and λex/em 535/617 nm for PI). […]

[1] = test system: Solid Ehrlich carcinoma (SEC); experiment: In vivo anti-tumor assay: tumor volume and tumor inhibition ratio; conditions: SEC-bearing mice, 6 mg/kg; SEC control 5802 mm^3
Method: We used adult Swiss albino female mice with average body weight 18–23 g obtained from Theodor Bilharzia Research Institute in Giza, Egypt. Mice were kept under constant conditions of a 12 h light–dark cycle at temperatures below controlled moisture conditions (22 ± 2 °C) with standard laboratory mouse nutrition and water entries. Approval for the experimental protocol was provided from the ethical committee of Suez Canal University for this experimental protocol (approval number REC-06-2020, Faculty of Science, Suez Canal University). Mice were adapted for approximately 10 days before use in the experiment.
Solid Ehrlich carcinoma (SEC) was obtained from the National Cancer Institute (University of Cairo, Egypt). The tumor cell line proliferated in mice after serial implantation of the peritoneal cavity (I.P.) in 0.2 mL of physiological saline containing 1 × 10^6 viable cells for 24 h. […]
We measured the length and width of the tumor using a digital Vernier clipper (Tricle Brand, Shanghai, China), then we calculate the tumor volume using the formula: V = (L × W × W)/2, where V is tumor volume, W is tumor width, and L is tumor length, and calculated the tumor inhibition ratio% using the formula: TIR %= (C − T)/C × 100, where T represents mean tumor volume of treated group and C represents mean tumor volume of the control group.

[2] = Histopathological examination of liver and kidney (H&E); assay type: in vivo, mice
Method: We randomly divided 50 mice into groups 5 groups (10 mice in each group): normal control (I) (mice injected intraperitoneally with the same volume of solvent for 14 consecutive days); group II, a group of normal mice treated with compound 4 (mice injected intraperitoneally with newly produced compound 4 at a dose of 6 mg/kg per day for 14 days); group III, solid tumor group (mice were implanted with solid tumor); group IV, group were treated with 5-FU (after 10 days of tumor implantation, mice were treated with 6 mg/kg only once); and group V, solid tumor group were treated with compound 4 (after 10 days of tumor implantation, mice were treated with 6 mg/kg only once). after one day of the previous treatment, 10 mice from each group were sacrificed and tumor weight, tumor volume (length and width of solid femoral tumor), blood and liver samples were obtained from each group. A portion of each blood sample taken was used for complete blood count (CBC) and the rest was centrifuged to obtain the serum. Serum was used for biochemical parameter estimation. The livers were rapidly dissected, washed with isotonic saline, and dried. The experiment design is summarized in Supplementary Figure S3.
Complete blood counts (CBCs) were counted using an AbbottCELLDYN®1800 Automated Hematology Analyzer (Abbott Park, IL, USA) equipped with an off-the-shelf kit (Abbott Laboratories, Abbott Park, IL, USA). For microscopic histopathological examination, tumor and kidney slices were maintained in 10% formalin, dehydrated with graduated alcohol, embedded in paraffin sections, H&E stained, and hematoxylin stained.
Specimens from mice liver cells were fixed in 10% formalin saline. Then, the samples were dehydrated with ascending series of ethanol and embedded in paraffin. A […] thick section was stained with hematoxylin and eosin and examined under a light microscope.

Q: For `O=C1NC(=S)N(c2ccc(O)cc2)/C1=C/c1cccs1` [Compound 4, (E)-1-(4-Hydroxyphenyl)-5-(thiophen-2-ylmethylene)-2-thioxoimidazolidin-4-one], which “% cells in G2/M phase” value (HepG2 cells) is on record?
A: 21.15%

Q: And the “tumor volume on the final day” value [1]?
A: 2766 mm^3

Q: And the kidney histopathology ([2]; SEC-bearing mice treated)?
A: almost normal, intact renal corpuscles and tubules

Q: And the liver histopathology ([2]; SEC-bearing mice treated)?
A: liver lobules looking normal

Q: And the liver histopathology ([2]; normal mice treated)?
A: normal-looking liver lobules; some hepatocytes showed a hydropic degeneration and a balloon degeneration
